In PMC11423305, “Structure-Based Design of CBP/EP300 Degraders: When Cooperativity Overcomes Affinity” (JACS Au, 2024):
Read-outs that look alike come from different tables or passages of the source.

Tests used:
EP300-BRD = molecular target: T1, EP300-BRD (Homo sapiens, UniProt Q09472); assay: BROMOscan ligand binding site-directed competition assay, EP300; conditions: for Kd: BROMOscan; for LE EP300 (ligand efficiency): LE = 1.4(pIC50)/N
T1 construct: T7 phage display fusion with DNA tag for qPCR; purchased Eurofins Discovery (BROMOscan service); host or cells: E. coli infected with T7 phage
T1 sequence (Q09472 1049-1156 limits assumed): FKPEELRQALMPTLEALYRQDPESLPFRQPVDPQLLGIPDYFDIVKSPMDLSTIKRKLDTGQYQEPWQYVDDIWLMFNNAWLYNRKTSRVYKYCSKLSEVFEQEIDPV
Description: (§1) 2. Methods and General Procedures […]
(§2) KD values were determined using BROMOscan™ technology, carried out by Eurofins […]
(§3) Discovery according to their standard protocol. Briefly E. coli were infected with T7 phage […]
(§4) strains displaying bromodomains and bromodomain protein was subsequently purified […]
(§5) through lysis, centrifugation and filtration. Affinity resins were generated by incubation of […]
(§6) streptavidin-coated magnetic beads with biotinylated small molecules or acetylated […]
(§7) peptide ligands. Binding reactions were assembled by combining the bromodomains and […]
(§8) liganded affinity beads in binding buffer (17 % SeaBlock, 0.33x PBS, 0.04 % Tween 20, […]
(§9) 0.02 % BSA, 0.004 % sodium azide and 7.4 mM DTT) with compounds (11-point, 3-fold […]
(§10) dilution series) added to give a final DMSO concentration of 0.09 %. Assay plates were […]
(§11) incubated for 1 h, prior to washing and elution of beads. The bromodomain concentration […]
(§12) in the eluates was measured by qPCR of the DNA tag on the bromodomain.
(§13) KD values were calculated with a standard dose-response curve fitted using the Hill […]
(§14) Response = Background + Signal − Background […]
(§15) The Hill Slope was set to -1 and curves fitted using a non-linear least square fit with the Levenberg-Marquardt algorithm.
(§16) Ligand efficiency (LE) was calculated as follows: LE = 1.4(pIC50)/N

CBP-BRD [1] = molecular target: T2, CBP-BRD (Homo sapiens, UniProt Q92793); assay: BROMOscan ligand binding site-directed competition assay, CBP; set-up: T7 phage display fusion with DNA tag for qPCR; purchased Eurofins Discovery (BROMOscan service); host or cells: E. coli infected with T7 phage; conditions: for Kd: BROMOscan; for LE CBP (ligand efficiency): LE = 1.4(pIC50)/N
Description: as §1, §2, §3, §4, §5, §6, §7, §8, §9, §10, §11, §12, §13, §14, §15, §16

CBP = molecular target: T3, CBP (Homo sapiens, UniProt Q92793); assay: Quantification of CBP degradation by Western blotting in LP1 cells; assay type: cell-based; conditions: 16 h, Western blot; for % remaining CBP: 5 μM compound
T3 construct: quantification of CBP and EP300 levels by Western blotting following 16 h treatment of LP1 cells; endogenous in cells; host or cells: LP1 cells
T3 sequence (Q92793 whole entry): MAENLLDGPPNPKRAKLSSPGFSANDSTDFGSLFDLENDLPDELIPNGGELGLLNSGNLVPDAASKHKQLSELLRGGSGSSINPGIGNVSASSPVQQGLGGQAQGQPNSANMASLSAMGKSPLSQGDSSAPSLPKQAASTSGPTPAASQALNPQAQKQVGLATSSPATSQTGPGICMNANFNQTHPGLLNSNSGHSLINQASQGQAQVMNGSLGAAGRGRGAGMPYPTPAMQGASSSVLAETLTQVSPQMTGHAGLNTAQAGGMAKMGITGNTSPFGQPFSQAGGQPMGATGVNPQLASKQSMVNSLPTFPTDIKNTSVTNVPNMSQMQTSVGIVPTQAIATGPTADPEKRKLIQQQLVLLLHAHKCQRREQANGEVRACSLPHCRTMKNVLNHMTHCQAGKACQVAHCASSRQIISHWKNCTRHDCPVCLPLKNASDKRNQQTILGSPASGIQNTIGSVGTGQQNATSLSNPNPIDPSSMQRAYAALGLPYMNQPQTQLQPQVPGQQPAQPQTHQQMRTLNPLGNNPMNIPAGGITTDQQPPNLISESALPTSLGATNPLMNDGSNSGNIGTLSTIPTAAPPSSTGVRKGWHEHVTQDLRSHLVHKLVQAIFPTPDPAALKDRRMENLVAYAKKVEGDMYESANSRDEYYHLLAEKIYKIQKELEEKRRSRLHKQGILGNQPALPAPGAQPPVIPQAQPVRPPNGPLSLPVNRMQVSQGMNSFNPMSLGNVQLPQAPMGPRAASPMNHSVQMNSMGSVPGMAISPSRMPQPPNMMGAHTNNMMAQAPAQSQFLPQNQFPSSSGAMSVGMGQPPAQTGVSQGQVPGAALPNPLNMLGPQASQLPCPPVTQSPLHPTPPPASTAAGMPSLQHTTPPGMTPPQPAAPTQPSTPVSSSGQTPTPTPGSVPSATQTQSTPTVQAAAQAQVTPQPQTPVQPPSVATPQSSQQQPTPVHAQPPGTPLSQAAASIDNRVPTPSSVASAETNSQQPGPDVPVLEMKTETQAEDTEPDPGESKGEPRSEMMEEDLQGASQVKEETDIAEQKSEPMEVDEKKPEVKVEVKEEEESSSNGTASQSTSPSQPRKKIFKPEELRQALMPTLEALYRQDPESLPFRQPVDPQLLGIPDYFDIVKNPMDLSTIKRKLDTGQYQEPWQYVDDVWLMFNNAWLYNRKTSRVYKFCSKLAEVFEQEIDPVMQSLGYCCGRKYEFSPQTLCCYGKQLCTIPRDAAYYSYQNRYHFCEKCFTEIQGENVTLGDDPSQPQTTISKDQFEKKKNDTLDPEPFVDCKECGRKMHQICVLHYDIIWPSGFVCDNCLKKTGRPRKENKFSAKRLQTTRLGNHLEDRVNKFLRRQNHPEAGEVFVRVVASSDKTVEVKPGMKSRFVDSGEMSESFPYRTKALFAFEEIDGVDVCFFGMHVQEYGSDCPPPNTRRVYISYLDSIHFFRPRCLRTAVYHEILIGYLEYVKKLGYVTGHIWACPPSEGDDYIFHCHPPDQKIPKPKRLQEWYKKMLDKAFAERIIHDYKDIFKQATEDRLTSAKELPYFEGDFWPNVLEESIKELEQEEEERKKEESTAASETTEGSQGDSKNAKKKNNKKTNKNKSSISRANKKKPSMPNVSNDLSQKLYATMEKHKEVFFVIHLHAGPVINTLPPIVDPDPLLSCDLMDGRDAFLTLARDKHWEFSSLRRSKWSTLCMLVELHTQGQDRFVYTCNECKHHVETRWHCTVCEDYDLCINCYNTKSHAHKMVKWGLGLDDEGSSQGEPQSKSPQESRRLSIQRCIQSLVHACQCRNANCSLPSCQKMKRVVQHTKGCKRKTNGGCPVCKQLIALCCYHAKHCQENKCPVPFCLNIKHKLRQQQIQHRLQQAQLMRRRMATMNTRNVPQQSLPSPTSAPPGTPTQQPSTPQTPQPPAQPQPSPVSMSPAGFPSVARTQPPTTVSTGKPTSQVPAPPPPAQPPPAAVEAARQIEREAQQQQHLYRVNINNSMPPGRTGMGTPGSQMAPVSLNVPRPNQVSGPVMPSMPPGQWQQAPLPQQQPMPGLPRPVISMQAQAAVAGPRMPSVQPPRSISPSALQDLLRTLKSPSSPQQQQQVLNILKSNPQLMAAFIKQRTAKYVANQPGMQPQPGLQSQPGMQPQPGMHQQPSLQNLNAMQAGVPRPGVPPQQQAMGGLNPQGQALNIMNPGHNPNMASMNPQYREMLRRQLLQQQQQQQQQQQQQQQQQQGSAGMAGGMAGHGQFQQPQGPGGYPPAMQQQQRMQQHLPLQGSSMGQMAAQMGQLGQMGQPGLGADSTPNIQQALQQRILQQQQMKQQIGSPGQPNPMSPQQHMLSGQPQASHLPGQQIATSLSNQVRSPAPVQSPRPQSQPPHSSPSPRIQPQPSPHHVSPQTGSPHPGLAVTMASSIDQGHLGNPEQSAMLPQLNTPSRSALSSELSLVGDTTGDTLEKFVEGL
Description: (§17) LP1 cells were cultured in DMEM (Gibco, 41966-029) supplemented with 15 % FBS (Sigma, F9665); MM1S and LNCaP cells in RPMI 1640 ATCC modification (Gibco, […]
(§18) DMEM/F12 (Gibco, 11320074) supplemented with 1 % non-essential amino acids […]
(§19) additionally supplemented with 1 % penicillin/streptomycin (Gibco, 15070-063), and cells maintained in a humidified incubator with 5 % CO2 at 37 °C. The identity of all lines (except for MM1S which were recently purchased from ATCC) was authenticated by STR profiling (performed by Microsynth).
(§20) Quantification of CBP/EP300 degradation by Western blotting
(§21) LP1 cells plated on 6 well plates were treated with the stated compounds at a final concentration of 0.1 % DMSO for the stated time. Cells were harvested on ice, washed in PBS and lysed in RIPA buffer (50 mM tris pH 7.5, 2 mM EDTA, 150 mM NaCl, 0.5 % sodium deoxycholate, 1 % Triton X100) supplemented with cOmplete ™ protease inhibitor cocktail (Roche). Protein concentrations were determined using the Pierce ™ BCA Protein Assay Kit (Thermo Scientific, 23227) and equal amounts were separated on 4-12 % ExpressPl us™ PAGE gels (GenScript, M41215). Proteins were transferred to PVDF membranes, the membranes were blocked with 5 % milk (Merk Millipore, 115363) in PBS-T and proteins were stained with the following antibodies at 4 °C overnight: CBP […]
(§22) BRD4 (Bethyl Laboratories, A301-985A50, diluted 1:2000) and vinculin (Invitrogen, 42H89L44, diluted 1:1000). For detection, membranes were incubated for 1 h at room temperature with HRP-conjugated secondary antibodies (Southern Biotech, anti-rabbit […]
(§23) SuperSignal™ West Pico PLUS Chemiluminescent Substrate (Thermo Scientific, 34580) and the Vilber Fusion-FX7 imager. Bands were quantified using ImageJ software and protein levels normalized to protein from DMSO treated cells run on the same membrane. For dose response curves, data was fitted using a four -parameter dose-response curve in GraphPad Prism v. 9.5.1, where the top is fixed at 100 %. The DC50 was defined as the PROTAC concentration resulting in 50 % remaining protein. […]

EP300 = molecular target: T4, EP300 (Homo sapiens, UniProt Q09472); assay: Quantification of EP300 degradation by Western blotting in LP1 cells; assay type: cell-based; conditions: 16 h, Western blot; for % remaining EP300: 5 μM compound
T4 construct: quantification of CBP and EP300 levels by Western blotting following 16 h treatment of LP1 cells; endogenous in cells; host or cells: LP1 cells
T4 sequence (Q09472 whole entry): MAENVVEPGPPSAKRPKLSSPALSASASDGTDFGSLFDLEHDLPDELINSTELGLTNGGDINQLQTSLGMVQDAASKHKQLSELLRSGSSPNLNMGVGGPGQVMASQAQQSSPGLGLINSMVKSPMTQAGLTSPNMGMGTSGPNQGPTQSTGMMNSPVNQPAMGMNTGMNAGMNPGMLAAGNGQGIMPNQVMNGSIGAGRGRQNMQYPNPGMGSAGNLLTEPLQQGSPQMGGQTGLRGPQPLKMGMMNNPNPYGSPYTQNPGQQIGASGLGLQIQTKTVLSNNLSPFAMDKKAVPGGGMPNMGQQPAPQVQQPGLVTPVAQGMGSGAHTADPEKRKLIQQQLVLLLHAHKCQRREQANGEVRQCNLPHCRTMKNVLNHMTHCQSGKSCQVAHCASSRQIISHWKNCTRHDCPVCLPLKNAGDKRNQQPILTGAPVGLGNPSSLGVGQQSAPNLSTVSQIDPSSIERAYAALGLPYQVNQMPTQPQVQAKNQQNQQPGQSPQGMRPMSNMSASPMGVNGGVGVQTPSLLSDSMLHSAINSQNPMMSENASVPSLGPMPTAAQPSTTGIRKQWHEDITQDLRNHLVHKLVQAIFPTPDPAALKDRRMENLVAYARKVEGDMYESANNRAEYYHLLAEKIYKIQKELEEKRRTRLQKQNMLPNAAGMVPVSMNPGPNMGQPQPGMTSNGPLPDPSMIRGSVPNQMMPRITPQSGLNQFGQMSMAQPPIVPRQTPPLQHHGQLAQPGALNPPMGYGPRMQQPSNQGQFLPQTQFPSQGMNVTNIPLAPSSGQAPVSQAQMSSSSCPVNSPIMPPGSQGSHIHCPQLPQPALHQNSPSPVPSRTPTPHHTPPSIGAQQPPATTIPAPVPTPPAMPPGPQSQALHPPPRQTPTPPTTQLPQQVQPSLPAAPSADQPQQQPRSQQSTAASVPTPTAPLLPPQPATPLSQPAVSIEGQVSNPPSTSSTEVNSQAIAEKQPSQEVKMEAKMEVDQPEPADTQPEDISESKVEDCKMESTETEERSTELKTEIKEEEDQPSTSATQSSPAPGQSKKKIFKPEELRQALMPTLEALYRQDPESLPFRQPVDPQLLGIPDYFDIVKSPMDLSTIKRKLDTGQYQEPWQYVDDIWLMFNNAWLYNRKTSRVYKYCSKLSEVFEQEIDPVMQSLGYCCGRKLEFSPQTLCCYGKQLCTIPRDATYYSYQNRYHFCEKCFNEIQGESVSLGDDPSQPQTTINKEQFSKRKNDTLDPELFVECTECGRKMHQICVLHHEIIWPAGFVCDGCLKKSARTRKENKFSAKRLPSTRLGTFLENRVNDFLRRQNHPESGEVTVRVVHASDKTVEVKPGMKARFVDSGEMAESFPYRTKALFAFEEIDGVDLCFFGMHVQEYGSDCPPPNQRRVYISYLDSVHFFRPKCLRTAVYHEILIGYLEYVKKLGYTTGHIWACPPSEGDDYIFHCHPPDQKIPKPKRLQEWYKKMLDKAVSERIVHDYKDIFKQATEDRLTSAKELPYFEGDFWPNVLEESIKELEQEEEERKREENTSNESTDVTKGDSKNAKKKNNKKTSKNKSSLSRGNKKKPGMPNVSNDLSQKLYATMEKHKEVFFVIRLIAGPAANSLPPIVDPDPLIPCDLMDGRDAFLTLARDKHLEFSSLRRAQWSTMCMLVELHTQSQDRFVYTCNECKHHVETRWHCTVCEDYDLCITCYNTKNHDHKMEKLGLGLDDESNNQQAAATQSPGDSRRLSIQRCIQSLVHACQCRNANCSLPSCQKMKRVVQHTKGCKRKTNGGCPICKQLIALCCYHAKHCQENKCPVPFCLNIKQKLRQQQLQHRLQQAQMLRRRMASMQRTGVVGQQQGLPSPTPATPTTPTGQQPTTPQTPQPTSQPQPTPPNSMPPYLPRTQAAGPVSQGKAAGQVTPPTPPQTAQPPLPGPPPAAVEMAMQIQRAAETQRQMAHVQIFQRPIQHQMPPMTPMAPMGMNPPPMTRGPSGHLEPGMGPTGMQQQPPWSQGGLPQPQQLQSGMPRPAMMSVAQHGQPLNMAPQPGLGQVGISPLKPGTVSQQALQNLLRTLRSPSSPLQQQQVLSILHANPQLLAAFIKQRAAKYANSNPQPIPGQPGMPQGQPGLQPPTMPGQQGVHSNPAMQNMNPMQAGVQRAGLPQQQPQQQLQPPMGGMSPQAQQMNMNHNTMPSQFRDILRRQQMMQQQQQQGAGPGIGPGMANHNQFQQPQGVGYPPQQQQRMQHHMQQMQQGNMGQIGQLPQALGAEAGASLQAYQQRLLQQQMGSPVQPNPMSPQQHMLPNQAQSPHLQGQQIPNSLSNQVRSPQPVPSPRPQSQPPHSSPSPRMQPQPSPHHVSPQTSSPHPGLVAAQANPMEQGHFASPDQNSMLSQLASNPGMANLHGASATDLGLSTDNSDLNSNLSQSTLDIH
Description: as §17, §18, §19, §20, §21, §22, §23

CRBN and CBP-BRD = CRBN and CBP-BRD (Homo sapiens, UniProt Q92793+Q96SW2); assay: FluoPPI cellular ternary complex formation, CBP-BRD; assay type: cell-based; conditions: U2OS cells, 6 h
[2] = molecular target: CRBN and CBP catalytic core (Homo sapiens, UniProt Q92793+Q96SW2); assay: FluoPPI cellular ternary complex formation, CBP catalytic core; assay type: cell-based; conditions: U2OS cells, 6 h
[3] = molecular target: T5, CBP-BRD:CRBN thalidomide binding domain ternary complex (Homo sapiens, UniProt Q92793+Q96SW2); assay: TR-FRET CBP-BRD:PROTAC:CRBN ternary complex formation; conditions: CBP-BRD and CRBN-thalidomide binding domain labeled with TR-FRET pair
T5 construct: GST-CBP (human, residues 1081-1197); the C-terminus of CRBN (human, residues 318-442); His6 with TEV cleavage site (N, cleaved yes); made in house; host or cells: Rosetta (DE3) cells (E. coli)
T5 sequence (Q92793 1081-1197): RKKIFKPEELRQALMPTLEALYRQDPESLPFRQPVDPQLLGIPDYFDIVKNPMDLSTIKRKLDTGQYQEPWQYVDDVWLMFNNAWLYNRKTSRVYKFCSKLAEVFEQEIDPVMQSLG
T5 sequence (Q96SW2 318-442): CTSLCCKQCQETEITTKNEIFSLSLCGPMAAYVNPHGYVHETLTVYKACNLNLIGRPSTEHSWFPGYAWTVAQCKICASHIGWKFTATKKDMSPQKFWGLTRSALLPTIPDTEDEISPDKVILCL
Description: (PMSF), and 1 mM EDTA) and lysed by sonication. The lysates were clarified by centrifugation (18,000 rpm, 4 °C, 1 h).
For GST-CBP the soluble proteins were loaded onto a column packed with glutathione sepharose 4B (GE Healthcare) and subsequently eluted with 10 mM reduced glutathione in buffer containing 20 mM Tris-HCl pH 8.0, and 150 mM NaCl. Finally, a size exclusion step (HiLoad 16/600 Superdex 200 pg column from GE Healthcare) was used to further purify the protein in buffer containing 50 mM HEPES pH 7.5 and 150 mM NaCl. For His-CRBN and His-CRBN-Avi(biotin), the soluble fractions were loaded onto the HisTrap FF crude column (GE Healthcare) and washed with lysis buffer supplemented with 50 mM imidazole. The proteins were eluted with a buffer containing 250 mM imidazole, 100 mM Tris-HCl pH 8.0 and 500 mM NaCl. For His-CRBN-Avi(biotin) only, recombinant TEV protease was used to cleave the His6-tag during overnight dialysis at 4 °C against buffer containing 100 mM Tris-HCl pH 8.0 and 500 mM NaCl. The dialyzed sample was passed through the HisTrap FF crude column to remove His6-tagged TEV protease and uncleaved protein. […]
The maximal control contained no PROTAC, the blank contained no SK-20 and no PROTAC – these were replaced by the appropriate buffer. […] The samples were incubated for 3 h (20 °C, dark) and the signal was detected using the Infinite M1000 plate reader (Tecan). After excitation at 317 nm, emission at 620 and 665 nm was recorded. […]
were determined according to the following equation:
activity (%) = ΔF ∗ 100 = F−Fb ∗ 100 , where Ft is the TR-FRET signal in the absence of any compound (maximal control, 100 % activity), Fb the TR-FRET signal in the absence of the GST -CBP (blank, 0 % activity) and F the TR -FRET signal in the presence of the compound. Dose -response curves were plotted in GraphPad Prism 10.2.3 and fitted with nonlinear regression “log(inhibitor) vs. normalized response – variable slope”, from which IC 50 values were determined. […]

CBP-BRD [4] = molecular target: T2, CBP-BRD; assay: TR-FRET competition with acetylated peptide binding to CBP-BRD, with and without CRBN (cooperativity); set-up: GST-CBP (human, residues 1081-1197); made in house; host or cells: Rosetta (DE3) cells (E. coli)

Compound | Kd (EP300-BRD) | LE EP300 (ligand efficiency) (EP300-BRD) | Kd (CBP-BRD [1]) | LE CBP (ligand efficiency) (CBP-BRD [1]) | % remaining CBP (CBP) | % remaining EP300 (EP300) | other results
CC(=O)Nc1cc(NC(=O)c2ccco2)cc(C(=O)Nc2cccc3nnc(C)cc23)c1 [compound 1] | 23 nM | 0.33 | 19 nM | 0.34 | – | – | –
Cc1cc2c(NC(=O)c3cc(NC(=O)c4ccco4)cc(-c4ccn(C)n4)c3)cccc2nn1 [compound 2] | 9.9 nM | 0.33 | 8.7 nM | 0.33 | – | – | –
CC(=O)Nc1cc(C(=O)Nc2cccc3nnc(C)cc23)cc(-c2ccn(C)n2)c1 [compound 3] | 25 nM | 0.35 | 29 nM | 0.35 | – | – | –
Cc1cc2c(NC(=O)c3cc(NC(=O)CCCCCCCCCCCNc4cccc5c4C(=O)N(C4CCC(=O)NC4=O)C5=O)cc(-c4ccn(C)n4)c3)cccc2nn1 (stereo not shown) [compound 4] | > 10000 nM | – | 3300 nM | – | 21% | 43% | ternary complex formation in cells with CRBN and CBP-BRD (CRBN and CBP-BRD): good ternary complex formation; ternary complex formation in cells with CBP catalytic core [2]: able to induce ternary complex formation
Cc1cc2c(NC(=O)c3cc(NC(=O)CCCCCCCCNc4cccc5c4C(=O)N(C4CCC(=O)NC4=O)C5=O)cc(-c4ccn(C)n4)c3)cccc2nn1 (stereo not shown) [compound 6] | – | – | – | – | 83% | 87% | –
Cc1cc2c(NC(=O)c3cc(NC(=O)CCCCCCCCCCNc4ccc5c(c4)C(=O)N(C4CCC(=O)NC4=O)C5=O)cc(-c4ccn(C)n4)c3)cccc2nn1 (stereo not shown) [compound 7] | – | – | – | – | 30% | 69% | –
Cc1cc2c(NC(=O)c3cc(NC(=O)COCCOCCOCCNc4cccc5c4C(=O)N(C4CCC(=O)NC4=O)C5=O)cc(-c4ccn(C)n4)c3)cccc2nn1 (stereo not shown) [compound 8] | – | – | – | – | 81% | 95% | –
Cc1cc2c(NC(=O)c3cc(NC(=O)CCCCCCCN4CCN(c5ccc6c(c5)C(=O)N(C5CCC(=O)NC5=O)C6=O)CC4)cc(-c4ccn(C)n4)c3)cccc2nn1 (stereo not shown) [compound 9] | 45 nM | – | 28 nM | – | > 95% | > 95% | ternary complex formation in cells with CRBN and CBP-BRD (CRBN and CBP-BRD): good ternary complex formation
Cc1cc2c(NC(=O)c3cc(NC(=O)CCCCCCCCCCNc4cccc5c4C(=O)N(C4CCC(=O)N(C)C4=O)C5=O)cc(-c4ccn(C)n4)c3)cccc2nn1 (stereo not shown) [compound 10] | – | – | – | – | – | – | degradation of CBP (CBP; 1 μM): abrogated; degradation of EP300 (EP300; 1 μM): abrogated; ternary complex formation (TR-FRET) [3]: did not show cooperativity or ternary complex formation; IC50 (CBP-BRD [4]; absence of CRBN, read-out: CBP-BRD IC50 (binary, IC50[control])): 220 nM; IC50 (CBP-BRD [4]; presence of high concentrations of CRBN C-terminal thalidomide binding domain, read-out: ternary IC50 (IC50[CRBN])): 230 nM
